# Several values for one entry are separate records, joined by “and”; a condition that tells them apart may be missing. Equal values may be shown once. Entries after “also recorded” stand apart in the source; their conditions may differ. Read-outs that look alike come from different tables or passages of the source.
# Assays:
# Aβ40 aggregates [1] = target: T1, Aβ40 aggregates (Homo sapiens, UniProt P05067); test: Binding affinity of ADLumin-1 with Aβs (fluorescence titration); conditions: ADLumin-1 250 nM, Aβ40 aggregates 0 to 8 μM, fluorescence at 515 nm
# Target sequence in this assay (P05067 672-711 limits assumed): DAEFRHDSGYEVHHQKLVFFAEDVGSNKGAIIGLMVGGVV
# Aβ40 aggregates [2] = target: T1, Aβ40 aggregates; test: In vitro fluorescence spectral testing of ADLumin-1 with Aβ40 aggregates; type: binding
# Target sequence in this assay (P05067 672-711 limits assumed): as above
# Aβ40 aggregates [3] = target: T1, Aβ40 aggregates; test: In vitro chemiluminescence study with Aβ aggregates in PBS; type: binding
# Target sequence in this assay (P05067 672-711 limits assumed): as above
# [4] = ROS sensitivity of ADLumin-1; type: physicochemical; conditions: H2O2, ClO4−, TBHP, KO2; compared to O2 bubbling
# Method: Oxygen and ROS sensitivity of ADLumin-1: A 100.0 μL DMSO solution of ADLumin-1 (200.0 μM) was added to a well in a 96-well plate. One group was bubbled with oxygen for 5 seconds at different time points, and the control group was sealed without bubbling. Once the bubbling was over, the plate was subjected to chemiluminescence intensity recording with the IVIS system with the open filter setting (500 nm-840 nm). For ROS tests, A PBS solution (240 μL) was incubated in an Eppendorf tube. To each of above tubes, different ROS (H2O2 30 μL, […] 30 μL, TBHP 30 μL and KO2 30 μL) was added, respectively. Then, a solution of ADLumin-1 in DMSO (30 μL, 250.0 μM) was added. Finally, 100.0 μL of the resulting solution was transferred into a well of 96-well plate, and triplicated samples were prepared. Chemiluminescence images were obtained with an IVIS system under the open filter (500 nm-840 nm).
# Aβs = Aβs (Homo sapiens, UniProt P05067); test: In vivo chemiluminescence imaging with ADLumin-1; parameters: species or system 5×FAD mice
# Method: The IVIS Spectrum animal imaging system (PerkinElmer) was used for in vivo imaging. Images were acquired with open filter or specific emission filters. […] Chemiluminescent signals from the eyes were recorded at 0 and 45 min after i.v. injection of the probe. Sequence images were captured at 15 min after probe injection with the following parameters: sequence filter from 500 nm to 840 nm with an interval of 20 nm; Exposure time is 30 s, FOV=D. […] To evaluate the imaging results, an ROI was drawn around the brain or the eye region. Student t-test was used to calculate P values.
# Aβ40 aggregates [5] = target: T1, Aβ40 aggregates; test: In vivo mimic demonstration of DAS-CRET; conditions: FIG. 8E, subcutaneous injection in nude mouse
# Method: After solutions were prepared, one female 8-month old nude mouse was anesthetized, and the left hind limb was subcutaneously injected with the first solution and the right hind limbs was subcutaneously injected with the second solution. The mouse was then placed into the IVIS imaging chamber and images were captured from the dorsal side and from the ventral side with the open filter (500 nm-840 nm) and specific filters.
# Target sequence in this assay (P05067 672-711): as the sequence (P05067 672-711 limits assumed) above
# PA-K2 = test: Chemiluminescence detection of model beta-sheet aggregates (PA-K2); type: binding
# prion = type: binding
# insulin = target: T2, insulin (Homo sapiens, UniProt P01308); test: Chemiluminescence with misfoldon aggregates in PBS (insulin); type: binding
# T2 construct: immunoglobulin G (IgG), proinsulin, insulin, and apolipoprotein A-I (APO)
# Tau = test: Chemiluminescence with misfoldon aggregates in PBS (Tau); type: binding; conditions: ADLumin-1 2.5 μM, Tau aggregates 2.5 μM
# [6] = target: alpha-synuclein in human serum (Homo sapiens, UniProt P37840); test: Chemiluminescence of synuclein incubated with human serum
# Immunoglobulin G (IgG) = test: Aβ aggregates incubated with IgG
# human serum albumin = human serum albumin (Homo sapiens, UniProt P02768); test: Aβ aggregates incubated with human serum albumin
# Apolipoprotein A-I (APO) = Apolipoprotein A-I (APO) (Homo sapiens, UniProt P02647); test: Aβ aggregates incubated with APO
# Transthyretin = Transthyretin (Homo sapiens, UniProt P02766); test: Aβ aggregates incubated with transthyretin
# [7] = test system: beta-sheet misfoldons in patient serum; test: Chemiluminescence detection of beta-sheet misfoldons in disease serum; parameters: species or system human
# Method: Chemiluminescence detection beta-sheet misfoldons in disease serum by ADLumin-1: serum of AD patient contains abundant beta-sheet misfoldons that can be detected by ADLumin-1. ADLumin-1 (2.5 μM) was added to 100 μl non-diluted serum of AD patients, and serum from health control (HC) was used as the control. […] This is remarkable, since this difference is phenomenally large and is very useful for blood quality evaluation.
# Misfolded beta-sheets are associated with various diseases, including brain disorders (e.g., neurodegenerative disorders) and periphery diseases, particularly chronic diseases. The patient sera of chronic diseases also contains abundant beta-sheet misfoldons. In this regard, patient sera of multiple sclerosis, diabetes, rheumatoid arthritis and pulmonary fibrosis patients was used in this example.
# [8] = test system: beta-sheet misfoldons in mixed HC and disease serum; parameters: species or system human
# [9] = target: Aβ plaques and cerebral amyloid angiopathy (CAA) (Homo sapiens, UniProt P05067)
# [10] = two-photon imaging, 5×FAD mouse, i.v. 4 mg/kg
# Sequence of Aβs (P05067 672-713 limits assumed): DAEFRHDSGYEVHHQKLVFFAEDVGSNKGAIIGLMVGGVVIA
# Sequence of Aβ plaques and cerebral amyloid angiopathy (CAA) (P05067 672-713 limits assumed): as above
# T2 sequence (P01308 25-54 limits assumed, species assumed): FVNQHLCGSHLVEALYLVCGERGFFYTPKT
# T2 sequence (P01308 90-110 limits assumed, species assumed): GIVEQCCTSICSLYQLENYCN
# Sequence of human serum albumin (P02768 25-609): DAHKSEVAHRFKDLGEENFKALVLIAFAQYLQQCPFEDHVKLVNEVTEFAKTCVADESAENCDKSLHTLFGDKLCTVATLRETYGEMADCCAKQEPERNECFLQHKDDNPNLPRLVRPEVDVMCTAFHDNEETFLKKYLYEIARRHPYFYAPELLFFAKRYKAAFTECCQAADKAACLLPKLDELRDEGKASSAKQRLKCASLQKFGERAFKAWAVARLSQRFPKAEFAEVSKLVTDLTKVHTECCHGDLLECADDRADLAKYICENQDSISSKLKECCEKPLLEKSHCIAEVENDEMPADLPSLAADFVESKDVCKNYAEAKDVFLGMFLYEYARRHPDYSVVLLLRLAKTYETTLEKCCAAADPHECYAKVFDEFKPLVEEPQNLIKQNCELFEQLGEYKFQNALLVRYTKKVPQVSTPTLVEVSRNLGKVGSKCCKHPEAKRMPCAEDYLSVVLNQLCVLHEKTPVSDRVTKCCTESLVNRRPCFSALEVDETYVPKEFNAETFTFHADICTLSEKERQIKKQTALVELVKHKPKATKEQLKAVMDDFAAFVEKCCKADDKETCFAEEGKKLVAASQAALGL
# Sequence of Apolipoprotein A-I (APO) (P02647 25-267): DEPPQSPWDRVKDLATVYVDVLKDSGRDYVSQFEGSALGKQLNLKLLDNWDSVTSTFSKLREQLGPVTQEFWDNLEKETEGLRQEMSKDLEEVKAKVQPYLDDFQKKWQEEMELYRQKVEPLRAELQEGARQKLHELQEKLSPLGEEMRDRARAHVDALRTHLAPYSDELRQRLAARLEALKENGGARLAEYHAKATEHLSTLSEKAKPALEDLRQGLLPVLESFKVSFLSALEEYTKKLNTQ
smiles,measurement,setting,value
"Cc1nc2c[nH]c(/C=C/C=C/c3ccc(N(C)C)cc3)cn-2c1=O [ADLumin-1, 6-((1E,3E)-4-(4-(dimethylamino)phenyl)buta-1,3-dien-1-yl)-2-methylimidazo[1,2-a]pyrazin-3(7H)-one]",Kd,Aβ40 aggregates [1],2100 nM
same,fluorescence intensity increasing upon mixing with Aβs,Aβ40 aggregates [2],100 fold
same,shift of fluorescence emission of the probe with Aβs,Aβ40 aggregates [2],significant blue-shift
same,"chemiluminescence signal, wells with Aβs vs wells without Aβs","Aβ40 aggregates [3]; IVIS imaging system, open filter, 96-well plate",104 fold
same,chemiluminescence intensity increase upon incubation with Aβs,"Aβ40 aggregates [3]; PBS buffer with 2% DMSO, at 540 nm",about 216 fold
same,amplification of chemiluminescence intensity upon mixing with Aβs in vitro,"Aβ40 aggregates [3]; in vitro, summary statement",216 fold and > 200 fold
same,chemiluminescence response towards ROS species,[4],no significant changes; also recorded: considerably low; also recorded: relatively small
same,chemiluminescence signal 5×FAD vs age-matched wild-type mice,"Aβs; 5-month-old mice, summary statement",1.80 fold
same,brain chemiluminescence signal difference 5×FAD vs WT,Aβs; 640 nm filter,1.7 fold
same,brain chemiluminescence signal difference 5×FAD vs WT,"Aβs; 15 minutes after i.v. injection, open filter",1.7 fold
same,brain chemiluminescence signal difference 5×FAD vs WT,"Aβs; 30 minutes after i.v. injection, open filter",1.8 fold
same,chemiluminescence signals from eyes 5×FAD vs WT,"Aβs; mouse, in vivo",1.6 fold
same,chemiluminescence signals from noses 5×FAD vs WT,"Aβs; mouse, in vivo",1.7 fold
same,SNR (ROI1/ROI2),Aβ40 aggregates [5],> 2000 and 2189
same,intensity ratio of PA-K2/PA-K,PA-K2,about 47.5 fold
same,low limit of detection (LOD) lower than that of ThT,PA-K2,100 fold
same,chemiluminescence signal increase vs ADLumin-1 only in PBS,"PA-K2; ADLumin-1 2.5 μM, PA-K2 0.5 mg/ml, PBS",101 fold
same,peptide concentration range of concentration dependent intensity,PA-K2; PA-K2 and PA-E2,0.001 to 1.0 mg/mL
same,peptide concentration at which PA-K and PA-K2 are differentiated,PA-K2; chemiluminescence,0.001 mg/mL
same,ADLumin-1 concentration range of linear response,PA-K2; with 0.5 mg/ml PA-K2,0.001 to 0.1 mg/mL
same,largest chemiluminescence difference with aggregates,prion,2.22 fold
same,signal decay T½,prion,11.36 min
same,largest chemiluminescence difference with aggregates,"insulin; ADLumin-1 2.5 μM, insulin aggregates 2.5 μM, PBS",10.8 fold
same,signal decay T½,insulin; with insulin aggregates,> 60 min
same,largest chemiluminescence difference with aggregates,Tau,7.02 fold
same,chemiluminescence difference vs control group,[6],4.30 fold
same,chemiluminescence intensity IgG/Aβ group vs IgG group,Immunoglobulin G (IgG); incubation 30 minutes,1.81 fold
same,chemiluminescence intensity IgG/Aβ group vs IgG group,Immunoglobulin G (IgG); incubation 60 minutes,1.71 fold
same,chemiluminescence intensity IgG/Aβ group vs IgG group,Immunoglobulin G (IgG); incubation 120 minutes,2.55 fold
same,difference between Aβ/albumin and albumin only group,human serum albumin,no significant differences
same,intensity Aβ/APO group vs control group,Apolipoprotein A-I (APO),higher intensity
same,intensity Aβ/transthyretin group vs control group,Transthyretin,higher intensity
same,chemiluminescence signal AD serum vs HC serum,"[7]; ADLumin-1 2.5 μM, 100 μl non-diluted serum",> 50 fold and 52.2 fold
same,chemiluminescence signal disease serum vs HC control,[7]; diabetes serum,44.7 fold
same,chemiluminescence signal disease serum vs HC control,[7]; multiple sclerosis serum,34.9 fold
same,chemiluminescence signal disease serum vs HC control,[7]; pulmonary fibrosis serum,16.6 fold
same,chemiluminescence signal disease serum vs HC control,[7]; rheumatoid arthritis serum,29.3 fold
same,total signal of mixed group vs sum of 90% HC serum and 10% AD serum,[8],1.66 fold
same,signal mixture of HC serum and disease serum vs HC serum,[8]; 10% diabetes serum,3.34 fold
same,signal mixture of HC serum and disease serum vs HC serum,[8]; 10% multiple sclerosis serum,7.24 fold
same,signal mixture of HC serum and disease serum vs HC serum,[8]; 10% pulmonary fibrosis serum,4.60 fold
same,signal mixture of HC serum and disease serum vs HC serum,[8]; 10% rheumatoid arthritis serum,6.64 fold
same,chemiluminescence signal mixed group vs 100% HC serum,[8]; 90% HC serum and 10% AD serum,7.75 fold
same,SNR of CAAs,[9]; [10],~26.0
same,SNR of plaques,[9]; [10],about 17.0
same,time to peak intensity in CAA,[9]; two-photon time-course imaging,≤ 1 min
same,time to peak intensity in plaques,[9]; two-photon time-course imaging,5 min
